Results from patent US6737383B1, “Herbicidal oxadiazolidines” (priority 1999, dated 2004).

How the values were obtained:
crabgrass = experiment: Test B pre/postemergence crabgrass; format: in vivo, Digitaria sanguinalis
Outline: (§1)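 Herbicidal effect was estimated by eye on a ten-point control scale after plants spent twelve to sixteen days in a greenhouse following soil or foliar treatment. Foliar sprays targeted plants at one to four leaves; all doses were formulated in a non-phytotoxic solvent with surfactant.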

giant foxtail = experiment: Test B pre/postemergence giant foxtail; format: in vivo, Setaria faberii
Outline: as §1

wheat = experiment: Test B pre/postemergence wheat; format: in vivo, Triticum aestivum
Outline: as §1

duck salad = experiment: Test B flood test duck salad; format: in vivo, Heteranthera limosa
Outline: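 Read-out is a visual response score from 0 (no effect) to 10 (complete control), assigned by comparison with untreated controls. Treatment was applied at the 2-leaf stage, and plants stayed in the greenhouse for twelve to sixteen days before scoring.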

winter wheat [1] = experiment: Test E winter wheat; format: in vivo, Triticum aestivum; settings: Postemergence
Outline: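 Greenhouse test: compounds in non-phytotoxic solvent with surfactant; for postemergence, sprayed on plants at 1- to 4-leaf stage grown in 60:40 sandy loam/potting mix. Injury rated visually against untreated controls after about 21 to 28 days.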

blackgrass = experiment: Test E blackgrass; format: in vivo, Alopecurus myosuroides; settings: Preemergence
green foxtail = experiment: Test E green foxtail; format: in vivo, Setaria viridis; settings: Preemergence
Italian ryegrass = experiment: Test E Italian ryegrass; format: in vivo, Lolium multiflorum; settings: Preemergence
winter wheat [2] = experiment: Test E winter wheat; format: in vivo, Triticum aestivum; settings: Preemergence
wild oat = experiment: Test E wild oat; format: in vivo, Avena fatua; settings: Preemergence
winter barley = experiment: Test E winter barley; format: in vivo, Hordeum vulgare; settings: Preemergence
[3] = Preemergence, Rate 31 g/ha, visual rating, scale 0 to 10 (0 no effect, 10 complete control)
[4] = Preemergence, Rate 62 g/ha, scale of 0 to 10 where 0 is no effect and 10 is complete control
[5] = Preemergence, Rate 250 g/ha, scale of 0 to 10 where 0 is no effect and 10 is complete control
[6] = Rate 31 g/ha, Postemergence, scale 0 to 10
[7] = Rate 62 g/ha, Postemergence, scale 0 to 10 (0 no effect, 10 complete control)
[8] = Rate 125 g/ha, Postemergence, scale of 0 to 10 where 0 is no effect and 10 is complete control
[9] = Rate 125 g/ha, Preemergence, scale of 0 to 10 where 0 is no effect and 10 is complete control
[10] = Rate 250 g/ha, Postemergence, scale of 0 to 10 where 0 is no effect and 10 is complete control
[11] = Rate 62 g/ha, headed Pre-emergence (flood test species), scale 0 to 10 (0 no effect, 10 complete control)
[12] = Rate 125 g/ha, Pre-emergence, flood test species, scale 0 to 10 where 0 is no effect and 10 is complete control
[13] = Rate 250 g/ha, Pre-emergence, flood-test species, scale 0 to 10, 0 is no effect, 10 is complete control
[14] = Rate 1000 g/ha, 0 to 100 scale where 0 is no effect and 100 is complete control
[15] = Rate 500 g/ha, 0 to 100 scale, 0 is no effect, 100 is complete control
[16] = Rate 500 g/ha, 0 to 100 scale (0 no effect, 100 complete control)
[17] = Rate 1000 g/ha, 0 to 100 scale, 0 no effect, 100 complete control
[18] = Preemergence, Rate 500 g/ha, scale of 0 to 10 where 0 is no effect and 10 is complete control

With `CC(C)=CCn1c(=O)on(C(=O)N(c2ccc(F)cc2)C(C)C)c1=O` [Compound 288] the “Crabgrass plant response rating” value (crabgrass; [3]) was 0, the “Crabgrass plant response rating” value (crabgrass; [4]) was 1 and the “Crabgrass plant response rating” value (crabgrass; [5]) was 10. The “Crabgrass plant response rating” value (crabgrass; [6]) was 0, the “Crabgrass plant response rating” value (crabgrass; [7]) was 0 and the “Crabgrass plant response rating” value (crabgrass; [8]) was 0. For the same molecule, the “Crabgrass plant response rating” value (crabgrass; [9]) was 2, the “Plant response rating, Crabgrass” value (crabgrass; [10]) was 3 and the “Giant foxtail plant response rating” value (giant foxtail; [3]) was 0. The “Giant foxtail plant response rating” value (giant foxtail; [4]) was 5, the “Giant foxtail plant response rating” value (giant foxtail; [5]) was 10 and the “Giant foxtail plant response rating” value (giant foxtail; [6]) was 0. For the same molecule, the “Giant foxtail plant response rating” value (giant foxtail; [7]) was 0, the “Giant foxtail plant response rating” value (giant foxtail; [8]) was 0 and the “Giant foxtail plant response rating” value (giant foxtail; [9]) was 9. The “Plant response rating, Giant foxtail” value (giant foxtail; [10]) was 0, the “Wheat plant response rating” value (wheat; [3]) was 0 and the “Wheat plant response rating” value (wheat; [4]) was 0. The “Wheat plant response rating” value (wheat; [5]) was 2, the “Wheat plant response rating” value (wheat; [7]) was 0 and the “Wheat plant response rating” value (wheat; [8]) was 0. For the same molecule, the “Wheat plant response rating” value (wheat; [9]) was 0, the “Plant response rating, Wheat” value (wheat; [10]) was 0 and the “Ducksalad plant response rating” value (duck salad; Rate 31 g/ha, Pre-emergence section (flood test species), scale 0 to 10) was 0. The “Ducksalad plant response rating” value (duck salad; [11]) was 0, the “Ducksalad plant response rating” value (duck salad; [12]) was 0 and the “Ducksalad plant response rating” value (duck salad; [13]) was 0. For the same molecule, the “Plant response rating, Wheat (winter)” value (winter wheat [1]; [14]) was 40, the “Wheat (winter) plant response rating” value (winter wheat [1]; Rate 250 g/ha, 0 to 100 scale where 0 is no effect and 100 is complete control) was 35 and the “Plant response rating, Wheat (winter)” value (winter wheat [1]; [15]) was 30. The “Blackgrass plant response rating (0 to 100 scale)” value (blackgrass; Rate 250 g/ha) was 50, the “Plant response rating, Blackgrass” value (blackgrass; [16]) was 50 and the “Green foxtail plant response rating (0 to 100 scale)” value (green foxtail; Rate 250 g/ha) was 50. For the same molecule, the “Plant response rating, Green foxtail” value (green foxtail; [16]) was 60, the “Plant response rating, Green foxtail” value (green foxtail; [17]) was 100 and the “I. Ryegrass plant response rating (0 to 100 scale)” value (Italian ryegrass; Rate 250 g/ha) was 30. The “Plant response rating, I. Ryegrass” value (Italian ryegrass; [16]) was 50, the “Plant response rating, I. Ryegrass” value (Italian ryegrass; [17]) was 60 and the “Wheat (winter) plant response rating (0 to 100 scale)” value (winter wheat [2]; Rate 250 g/ha) was 40. The “Plant response rating, Wheat (winter)” value (winter wheat [2]; [16]) was 30, the “Plant response rating, Wheat (winter)” value (winter wheat [2]; [17]) was 55 and the “Wild oat plant response rating (0 to 100 scale)” value (wild oat; Rate 250 g/ha) was 20. For the same molecule, the “Plant response rating, Wild oat” value (wild oat; [16]) was 30, the “Plant response rating, Wild oat” value (wild oat; [17]) was 50 and the “Barley (winter) plant response rating (0 to 100 scale)” value (winter barley; Rate 250 g/ha) was 0. The “Plant response rating, Barley (winter)” value (winter barley; [16]) was 5 and the “Plant response rating, Barley (winter)” value (winter barley; [17]) was 10.
With `CCN(CC)C(=O)n1oc(=O)n(C2CC2)c1=O` [Compound 297] the “Crabgrass plant response rating” value (crabgrass; [4]) was 0, the “Crabgrass plant response rating” value (crabgrass; [5]) was 7 and the “Plant response rating, Crabgrass” value (crabgrass; [18]) was 7. For the same molecule, the “Crabgrass plant response rating” value (crabgrass; [7]) was 0, the “Crabgrass plant response rating” value (crabgrass; [8]) was 0 and the “Crabgrass plant response rating” value (crabgrass; [9]) was 2. For the same molecule, the “Plant response rating, Crabgrass” value (crabgrass; [10]) was 0, the “Giant foxtail plant response rating” value (giant foxtail; [4]) was 0 and the “Giant foxtail plant response rating” value (giant foxtail; [5]) was 7. The “Plant response rating, Giant foxtail” value (giant foxtail; [18]) was 7, the “Giant foxtail plant response rating” value (giant foxtail; [7]) was 0 and the “Giant foxtail plant response rating” value (giant foxtail; [8]) was 0. The “Giant foxtail plant response rating” value (giant foxtail; [9]) was 0, the “Plant response rating, Giant foxtail” value (giant foxtail; [10]) was 0 and the “Wheat plant response rating” value (wheat; [4]) was 0. For the same molecule, the “Wheat plant response rating” value (wheat; [5]) was 0, the “Plant response rating, Wheat” value (wheat; [18]) was 0 and the “Wheat plant response rating” value (wheat; [7]) was 0. For the same molecule, the “Wheat plant response rating” value (wheat; [8]) was 0, the “Wheat plant response rating” value (wheat; [9]) was 0 and the “Plant response rating, Wheat” value (wheat; [10]) was 0. For the same molecule, the “Ducksalad plant response rating” value (duck salad; [11]) was 0, the “Ducksalad plant response rating” value (duck salad; [12]) was 0 and the “Ducksalad plant response rating” value (duck salad; [13]) was 0. For the same molecule, the “Ducksalad plant response rating” value (duck salad; Rate 500 g/ha, Pre-emergence, flood test species, scale 0 to 10 (0 no effect, 10 complete control)) was 0, the “Plant response rating, Wheat (winter)” value (winter wheat [1]; Rate 250 g/ha, 0 to 100 scale, 0 is no effect, 100 is complete control) was 50 and the “Plant response rating, Wheat (winter)” value (winter wheat [1]; [14]) was 70. For the same molecule, the “Plant response rating, Wheat (winter)” value (winter wheat [1]; [15]) was 60, the “Plant response rating, Blackgrass” value (blackgrass; Rate 250 g/ha, 0 to 100 scale) was 40 and the “Plant response rating, Blackgrass” value (blackgrass; [16]) was 20. The “Plant response rating, Blackgrass” value (blackgrass; [17]) was 50, the “Plant response rating, Green foxtail” value (green foxtail; Rate 250 g/ha, 0 to 100 scale) was 60 and the “Plant response rating, Green foxtail” value (green foxtail; [16]) was 60. For the same molecule, the “Plant response rating, Green foxtail” value (green foxtail; [17]) was 60, the “Plant response rating, I. Ryegrass” value (Italian ryegrass; Rate 250 g/ha, 0 to 100 scale) was 60 and the “Plant response rating, I. Ryegrass” value (Italian ryegrass; [16]) was 50. The “Plant response rating, I. Ryegrass” value (Italian ryegrass; [17]) was 40, the “Plant response rating, Wheat (winter)” value (winter wheat [2]; Rate 250 g/ha, 0 to 100 scale) was 30 and the “Plant response rating, Wheat (winter)” value (winter wheat [2]; [16]) was 60. The “Plant response rating, Wheat (winter)” value (winter wheat [2]; [17]) was 70, the “Plant response rating, Wild oat” value (wild oat; Rate 250 g/ha, 0 to 100 scale) was 70 and the “Plant response rating, Wild oat” value (wild oat; [16]) was 60. The “Plant response rating, Wild oat” value (wild oat; [17]) was 70, the “Plant response rating, Barley (winter)” value (winter barley; Rate 250 g/ha, 0 to 100 scale, 0 no effect, 100 complete control) was 50 and the “Plant response rating, Barley (winter)” value (winter barley; [16]) was 55. The “Plant response rating, Barley (winter)” value (winter barley; [17]) was 60.
